The values below are quoted from earlier work in US20230201166A1, “METHODS FOR TREATING CANCER BY INHIBITING CARM1” (DANA-FARBER CANCER INSTITUTE, INC., priority 2020, published 2023).

Where two headings read alike, the source gives them in different places. Bounds are passed on as bounds.

The target of series [1] is T1, CARM1 (Homo sapiens, UniProt Q86X55).
T1 sequence (Q86X55 1-608): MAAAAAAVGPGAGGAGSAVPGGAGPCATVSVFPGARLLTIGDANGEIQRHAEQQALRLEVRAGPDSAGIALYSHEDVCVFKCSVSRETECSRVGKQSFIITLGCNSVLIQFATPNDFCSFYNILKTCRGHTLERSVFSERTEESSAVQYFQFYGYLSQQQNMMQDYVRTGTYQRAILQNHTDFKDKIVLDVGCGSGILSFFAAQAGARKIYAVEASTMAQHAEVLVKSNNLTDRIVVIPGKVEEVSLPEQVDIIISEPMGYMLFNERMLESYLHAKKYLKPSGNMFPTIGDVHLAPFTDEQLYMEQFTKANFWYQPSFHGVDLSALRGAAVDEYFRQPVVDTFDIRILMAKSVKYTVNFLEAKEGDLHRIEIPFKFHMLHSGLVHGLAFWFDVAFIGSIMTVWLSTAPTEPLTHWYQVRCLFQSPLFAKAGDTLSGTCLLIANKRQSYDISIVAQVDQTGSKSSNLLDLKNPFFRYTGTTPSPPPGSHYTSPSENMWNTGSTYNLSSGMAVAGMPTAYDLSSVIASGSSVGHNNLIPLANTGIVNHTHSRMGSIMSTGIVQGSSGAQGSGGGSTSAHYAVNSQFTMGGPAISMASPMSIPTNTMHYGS
Conditions: read-out: CARM1 ICW IC50; cited from earlier work.

Series [2] deals with T1, CARM1. Conditions: read-out: CARM1 Biochemical IC50; cited from earlier work.

Consider `CNC[C@@H](O)COc1ccc(Cl)c(-c2nc(-c3c(C)noc3C)c(C)c(N3Cc4cnc(N5CCC5)nc4C3)n2)c1` [EPZ025654], for which the IC50 (commonly the concentration that gives 50% inhibition) on CARM1 [1] is 0.011 µM.

Regarding `Cn1cnc2ccc(-c3cccc(OCC(O)CN)c3)nc21` (centres unmarked) [compound 1], at CARM1 [1], the IC50 was more than 20 µM.

For `CC(C)n1ncc2c(N3CCOCC3)cc(-c3cccc(OCC(O)CN)c3)nc21` (centres unmarked) [compound 2], at CARM1 [1], the IC50 is 19 µM.

As for `CNC[C@@H](O)COc1cc(-c2nc(-c3c(C)noc3C)c(C)c(N3CC4(CCN(C(=O)OC)CC4)C3)n2)ccc1Cl` [compound 3], the IC50 was more than 1 µM at CARM1 [2] and more than 6.5 µM at CARM1 [1].
